US20240409549A1, “NEW CRYSTAL FORM AND USE OF NITROGENOUS TRICYCLIC COMPOUND” (SUNSHINE LAKE PHARMA CO., LTD., priority 2021, published 2024)

Assays:
[1] = Pharmacokinetic experiment, oral capsules in Beagle dogs; type: in vivo; settings: male Beagle dogs, 5 mg/kg
Method: The crystal form of the compound having Formula (I) was filled into capsules, which were used for oral administration.
Three male Beagle dogs weighing 8-12 kg were orally administered with capsules containing the test sample at a dose of 5 mg/kg, and blood samples were taken at time points of 0.25 h, 0.5 h, 1.0 h, 2.0 h, 4.0 h, 6.0 h, 8.0 h and 24 h. Standard curve was plotted based on concentrations of the samples in a suitable range, the concentration of the test sample in the plasma sample was measured and quantified by AB SCIEX API4000 LC-MS/MS at MRM mode. Pharmacokinetic parameters were calculated according to drug concentration -time curve using a noncompartmental method by WinNonLin 6.3 software.

[2] = Stability experiment: high-temperature test; type: physicochemical; settings: for Purity (%): HPLC
Method: (§1) (1) High-temperature test: A batch of the test sample was taken into a flat weighing bottle, divided into ≤5 mm thick thin layer. The sample was placed at 60° C. for 30 days. The sample was then sampled at day 5, day 13 and day 30, and the change of the sample's color was observed. The purity of the sample was detected by HPLC.

[3] = Stability experiment: high-humidity test; type: physicochemical; settings: for Purity (%): HPLC; for Purity (%) / Appearance: High-humidity 25° C., RH 90%±5%
Method: (2) High-humidity test: take a batch of the test sample into the flat weighing bottle, divided into ≤5 mm thick thin layer. The samples were sampled at 25° C. and RH for 90%±5% for 30 days. The samples were sampled at day 5, 13 and day 30, and the sample color was observed. The purity of the sample was determined by HPLC.

[4] = Stability experiment: photostability (lighting) test; type: physicochemical; settings: for Purity (%): HPLC; for Purity (%) / Appearance: Lighting, open light box with UV
Description: as §1, with “(3) Photostability Test:” for “(1) High-temperature test:”, “placed in an opened light box (with UV)” for “placed”, “the illuminance […], UV light≥0.7 w/m^2” for “60° C.”

[5] = Hygroscopicity experiment (dynamic vapor sorption); type: physicochemical
Method: The hygroscopicity of the present invention is measured using the DVS INT-Std dynamic moisture and gas adsorption analyzer of the Surface Measurement Systems Company in UK. The humidity test range was 0%-95%, the air flow was 200 mL/min, the temperature was 25° C., test point: take one test point per […] 5% humidity.
An appropriate amount of the test sample was taken and the hygroscopicity of the test sample was tested by dynamic moisture adsorption device. The description of the hygroscopic characteristics and the definition of the hygroscopic weight gain (Appendix 9103 of Chinese Pharmacopoeia 2020 Edition, Guidelines for Drug Hygroscopicity Tests, experimental conditions: 25° C.±1° C., 80%±2% relative humidity) are described in the table below: […]

[6] = High-temperature 60° C., day 13
[7] = High-temperature 60° C., day 30
[8] = day 0 (start, common to all conditions)

AUC(0-t) ([1]; dog, plasma): 1.02 µg·h/mL
Cmax ([1]; dog, plasma): 0.389 µg/mL
Tmax [1]: 1.67 h
Purity (%) ([2]; High-temperature 60° C., day 5): 99.83%
Purity (%) [2, 6]: 99.91%
Purity (%) [2, 7]: 99.70%
Purity (%) [2, 8]: 99.88%
Appearance ([2]; High-temperature 60° C., day 5): White
Appearance [2, 6]: White
Appearance [2, 7]: White
Appearance [2, 8]: White
crystal structure stability ([2]; high temperature conditions): remains basically unchanged
Purity (%) ([3]; day 5): 99.81%
Purity (%) ([3]; day 13): 99.70%
Purity (%) ([3]; day 30): 99.82%
Appearance ([3]; day 5): White
Appearance ([3]; day 13): White
Appearance ([3]; day 30): White
crystal structure stability ([3]; high humidity conditions): remains basically unchanged
Purity (%) ([4]; day 5): 99.88%
Purity (%) ([4]; day 13): 99.59%
Purity (%) ([4]; day 30): 99.83%
Appearance ([4]; day 5): White
Appearance ([4]; day 13): White
Appearance ([4]; day 30): White
crystal structure stability ([4]; lighting conditions): remains basically unchanged
hygroscopic weight gain ([5]; after equilibrium at relative humidity of 80%, 25° C.): less than 0.2%
hygroscopic characteristics ([5]; relative humidity of 80%, criterion of Chinese Pharmacopoeia 2020 Appendix 9103): no or almost no hygroscopicity
SMILES: O=C(O)c1ccc2c(c1)Oc1ccc(OCc3c(-c4c(Cl)cccc4Cl)noc3C3CC3)nc1C1(CC1)C2 [Crystal form I, 2-((5-cyclopropyl-3-(2,6-dichlorophenyl)isoxazol-4-yl)methoxy)-10H-spiro[benzo[6,7]oxepino[3,2-b]pyridine-11,1′-cyclopropane]-7-carboxylic acid]
